# Earlier results as cited in patent US6514710B1, “Method of using cyclic peptides to inhibit binding to urokinase-type plasminogen activator receptor” (Angstrom Pharmaceuticals, Inc., priority 1996, dated 2003).
# Read-outs that look alike come from different tables or passages of the source.
# How the values were obtained:
# uPAR [1] = biological target: T1, uPAR (Homo sapiens, UniProt Q03405); settings: read-out: IC50, prevention of uPA binding to uPAR
# [2] = test system: murine Lewis Lung carcinoma; settings: murine Lewis Lung carcinoma in mice; peptides derived from the mouse sequence
# uPAR [3] = biological target: T1, uPAR; settings: read-out: IC50, inhibition of the binding of uPA to uPAR
# T1 sequence (Q03405 23-305): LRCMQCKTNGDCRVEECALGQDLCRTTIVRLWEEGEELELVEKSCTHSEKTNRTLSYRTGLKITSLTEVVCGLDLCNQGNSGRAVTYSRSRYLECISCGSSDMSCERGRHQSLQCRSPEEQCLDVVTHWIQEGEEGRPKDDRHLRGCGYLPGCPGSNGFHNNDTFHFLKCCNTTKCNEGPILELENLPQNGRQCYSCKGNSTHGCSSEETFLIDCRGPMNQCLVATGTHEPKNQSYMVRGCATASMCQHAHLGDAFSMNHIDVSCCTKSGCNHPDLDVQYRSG
Substance,IC50 (uPAR [1]) [µM],IC50 (uPAR [3]) [µM],inhibition of spontaneous metastasis [2]
[Ala^19]uPA-(12-32) [[Ala^19]uPA-(12-32) oxidized cyclic form],0.04,,
"corresponding linear shorter peptide (20-30): linear shorter peptide (20-30) corresponding to the mouse sequence (CVSYKYFSRIR; UniProt P06869 40-50, looked up, fragment)",,,had no effect
"linear peptide 20-30: linear peptide of uPA residues 20-30 (VSNKYFSNIHW; UniProt P00749 40-50, looked up, fragment)",,1,
"peptide (17-34) derived from the mouse sequence: corresponding longer peptide (17-34) derived from the mouse uPA sequence (GGVCVSYKYFSRIRRCSC; UniProt P06869 37-54, looked up, fragment)",,,inhibited spontaneous metastasis

# The next lines start with results.
IC50 (uPAR [1]) [µM],IC50 (uPAR [3]) [µM],Substance,inhibition of spontaneous metastasis [2]
0.1,,[Ala^19]uPA-(12-32) [[Ala^19]uPA-(12-32) open chain form],
,0.1,"peptide 17-34: longer peptide of uPA residues 17-34 (GTCVSNKYFSNIHWCNCP; UniProt P00749 37-54, looked up, fragment)",
